Measured values published in patent publication US20230219925A1, “BENZO FIVE-MEMBERED NITROGEN HETEROCYCLIC COMPOUND AND APPLICATION THEREOF” (GUANGZHOU INSTITUTES OF BIOMEDICINE AND HEALTH CHINESE …, priority 2020, published 2023).
Where two headings read alike, the source gives them in different places.

Key:
[1] = molecular target: T1, RORγ (Homo sapiens, UniProt P51449); experiment: luciferase dual reporter gene assay, Gal4-RORγLBD in 293T cells
T1 sequence (P51449 269-508 limits assumed): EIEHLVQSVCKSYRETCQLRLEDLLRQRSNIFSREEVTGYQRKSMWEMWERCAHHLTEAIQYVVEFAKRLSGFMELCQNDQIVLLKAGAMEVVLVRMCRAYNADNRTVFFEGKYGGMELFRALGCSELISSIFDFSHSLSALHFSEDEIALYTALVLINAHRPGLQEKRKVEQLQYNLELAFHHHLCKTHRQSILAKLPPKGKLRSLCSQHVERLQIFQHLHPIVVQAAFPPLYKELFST
Experimental: On the day before transfection, cells were prepared in the 96-well plate with a cell density of 1.5×10^4 cells/well. After 24 hours of adherent growth, transient transfection was performed with the transfection reagent Lipo-fectamine 2000 through a method of dual reporter gene co-transfection. The transfection reagent and the plasmids were separately diluted with the Opti-MEM Reagent. Gal4-RORγLBD (25 ng), pG5-luc genes (25 ng) and Renilla (5 ng) were added to each well, and after 24 hours of co-transfection, compounds having different concentrations were added. After 24 hours of incubation, the luciferase dual reporter gene detection assay kit was used for detecting luminescence signals. Three duplicate wells were set for each sample, and IC50 values (half maximal inhibitory concentrations) were calculated by software.

[2] = molecular target: T2, hRORγ (Homo sapiens, UniProt P51449); experiment: protein thermal stability shift assay (TSA)
T2 sequence (P51449 1-518): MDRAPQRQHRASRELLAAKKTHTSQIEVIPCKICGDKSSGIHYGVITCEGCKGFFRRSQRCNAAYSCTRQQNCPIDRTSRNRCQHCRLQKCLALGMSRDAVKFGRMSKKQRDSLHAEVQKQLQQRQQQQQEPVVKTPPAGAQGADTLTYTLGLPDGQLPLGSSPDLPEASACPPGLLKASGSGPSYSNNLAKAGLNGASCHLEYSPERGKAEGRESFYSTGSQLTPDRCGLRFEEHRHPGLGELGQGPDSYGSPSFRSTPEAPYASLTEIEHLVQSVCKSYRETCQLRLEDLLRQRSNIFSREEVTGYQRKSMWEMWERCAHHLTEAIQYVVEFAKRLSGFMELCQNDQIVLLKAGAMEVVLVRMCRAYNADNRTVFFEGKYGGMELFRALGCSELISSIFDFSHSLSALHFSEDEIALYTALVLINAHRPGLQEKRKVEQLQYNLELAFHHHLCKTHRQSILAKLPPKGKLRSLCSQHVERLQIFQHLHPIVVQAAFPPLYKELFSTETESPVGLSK

[3] = IC50 (luciferase detection technique), RORγ transcriptional activity, Table 1
[4] = read-out: ΔTm (TSA detection technique), hRORγ 10 μM, compound 200 μM
[5] = read-out: ΔTm (TSA detection technique)

Structure (SMILES) | IC50 [1, 3] [nM] | ΔTm at 200 µM [2, 4] [°C] | IC50 [1] [nM] | ΔTm at 200 µM [2, 5] [°C]
Cc1ccc(CC(=O)Nc2ccc(-c3nc4ccc(C)cc4s3)cc2)cc1 [Example 27, N-(4-(6-methylbenzo[d]thiazol-2-yl)phenyl)-2-(p-tolyl)acetamide] | 10000 to 100000 | > 10 |  | 
CCS(=O)(=O)c1ccc(CC(=O)Nc2ccc(-c3nc4ccc(C)cc4[nH]3)cc2)cc1 [Example 87, 2-(4-(ethylsulfonyl)phenyl)-N-(4-(6-methyl-1H-benzo[d]imidazol-2-yl)phenyl)acetamide] | 1000 to 10000 | > 10 |  | 
CCCCCn1c(-c2ccc(NC(=O)C(NC(C)=O)c3ccc(S(=O)(=O)CC)cc3)cn2)nc2ccc(C)cc21 (stereo not shown) [Example 81, 2-acetylamino-2-(4-(ethylsulfonyl)phenyl)-N-(6-(6-methyl-1-pentyl-1H-benzo[d]imidazol-2-yl)pyridin-3-yl)acetamide] |  |  | < 100 | < 5
Cc1ccc(CS(=O)(=O)Nc2ccc(-c3nc4ccc(C)cc4s3)cc2)cc1 [Example 12, N-(4-(6-methylbenzo[d]thiazol-2-yl)phenyl)-1-(p-tolyl)methanesulfonamide] | 1000 to 10000 | > 10 |  | 
Cc1ccc2nc(-c3ccc(NS(=O)(=O)Cc4cccc(N)c4)cc3)sc2c1 [Example 24, 1-(3-aminophenyl)-N-(4-(6-methylbenzo[d]thiazol-2-yl)phenyl)methane sulfonamide] | 10000 to 100000 | > 10 |  | 
CCS(=O)(=O)c1ccc(CC(=O)Nc2ccc(-c3nc4ccc(F)cc4s3)cc2)cc1 [Example 30, 2-(4-(ethylsulfonyl)phenyl)-N-(4-(6-fluorobenzo[d]thiazol-2-yl)phenyl)acetamide] | 1000 to 10000 | 5 to 10 |  | 
CCS(=O)(=O)c1ccc(C(NC(C)=O)C(=O)Nc2ccc(-c3nc4ccc(C)cc4n3[C@@H](C)c3ccc(C)cc3)nc2)cc1 (stereo partly drawn) [Example 80, 2-acetylamino-2-(4-(ethylsulfonyl)phenyl)-N-(6-(6-methyl-1-((S)-1-(p-tolyl)ethyl)-1H-benzo[d]imidazol-2-yl)pyridin-3-yl)acetamide] |  |  | < 100 | < 5
Cc1cc(C)c(S(=O)(=O)Nc2ccc(-c3nc4ccc(C)cc4s3)cc2)c(C)c1 [Example 10, 2,4,6-trimethyl-N-(4-(6-methylbenzo[d]thiazol-2-yl)phenyl)benzenesulfonamide] | 1000 to 10000 | > 10 |  | 
Cc1ccc2nc(-c3ccc(NS(=O)(=O)Cc4ccc(C#N)cc4)cc3)sc2c1 [Example 16, 1-(4-cyanophenyl)-N-(4-(6-methylbenzo[d]thiazol-2-yl)phenyl)methanesulfonamide] | 1000 to 10000 | > 10 |  | 
CCS(=O)(=O)c1ccc(C(NC(C)=O)C(=O)Nc2ccc(-c3nc4ccc(C)cc4n3[C@H](C)c3ccc(C)cc3)nc2)cc1 (stereo partly drawn) [Example 82, 2-acetylamino-2-(4-(ethylsulfonyl)phenyl)-N-(6-(6-methyl-1-((R)-1-(p-tolyl)ethyl)-1H-benzo[d]imidazol-2-yl)pyridin-3-yl)acetamide] |  |  | < 100 | < 5

Further lines, results first:

IC50 [1, 3] [nM] | ΔTm at 200 µM [2, 4] [°C] | IC50 [1] [nM] | ΔTm at 200 µM [2, 5] [°C] | Structure (SMILES)
< 100 | 5 to 10 |  |  | CCS(=O)(=O)c1ccc(CC(=O)Nc2ccc(-c3nc4ccc(C(=O)NC5CCCC5)cc4n3[C@H](C)c3ccc(C)cc3)cc2)cc1 [Example 70, (R)—N-cyclopentyl-2-(4-(2-(4-(ethylsulfonyl)phenyl)acetylamino)phenyl)-1-(1-(p-tolyl)ethyl)-1H-benzo[d]imidazol-6-formamide]
< 100 | 5 to 10 |  |  | CCS(=O)(=O)c1ccc(CC(=O)Nc2ccc(-c3nc4cc(Cl)ccc4n3Cc3ccccc3)cc2)cc1 [Example 53]
< 100 | < 5 |  |  | CCS(=O)(=O)c1ccc(C(NC(C)=O)C(=O)Nc2ccc(-c3nc4ccc(C)cc4n3[C@@H](C)c3ccc(C)cc3)cc2)cc1 (stereo partly drawn) [Example 73, 2-acetylamino-2-(4-(ethylsulfonyl)phenyl)-N-(4-(6-methyl-1-((S)-1-(p-tolyl)ethyl)-1H-benzo[d]imidazol-2-yl)phenyl)acetamide]
1000 to 10000 | 5 to 10 |  |  | CCS(=O)(=O)c1ccc(C(NC(C)=O)C(=O)Nc2ccc(-c3nc4cc(C(=O)NC(C)C)ccc4n3[C@@H](C)c3ccc(C)cc3)nc2)cc1 (stereo partly drawn) [Example 84, 2-(5-(2-acetylamino-2-(4-(ethylsulfonyl)phenyl)acetylamino)pyridin-2-yl)-N-isopropyl-1-((S)-1-(p-tolyl)ethyl)-1H-benzo[d]imidazol-5-formamide]
< 100 | 5 to 10 |  |  | CCS(=O)(=O)c1ccc(CC(=O)Nc2ccc(-c3nc4ccc(C)cc4n3Cc3ccc(C#N)cc3)cc2)cc1 [Example 49, N-(4-(1-(4-cyanobenzyl)-6-methyl-1H-benzo[d]imidazol-2-yl)phenyl)-2-(4-(ethylsulfonyl)phenyl)acetamide]
1000 to 10000 | 5 to 10 |  |  | CCS(=O)(=O)c1ccc(C(NC(C)=O)C(=O)Nc2ccc(-c3nc4cc(C(=O)NC(C)C)ccc4n3[C@@H](C)c3ccc(C)cc3)cc2)cc1 (stereo partly drawn) [Example 79, 2-(4-(2-acetylamino-2-(4-(ethylsulfonyl)phenyl)acetylamino)phenyl)-N-isopropyl-1-((S)-1-(p-tolyl)ethyl)-1H-benzo[d]imidazol-5-formamide]
1000 to 10000 | < 5 |  |  | Cc1ccc2nc(-c3ccc(NS(=O)(=O)c4ccc([N+](=O)[O-])cc4)cc3)sc2c1 [Example 5, N-(4-(6-methylbenzo[d]thiazol-2-yl)phenyl)-4-nitrobenzenesulfonamide]
< 100 | 5 to 10 |  |  | CCS(=O)(=O)c1ccc(CC(=O)Nc2ccc(-c3nc4cc(C(=O)NC5CCCC5)ccc4n3[C@H](C)c3ccc(C)cc3)cc2)cc1 [Example 72, (R)—N-cyclopentyl-2-(4-(2-(4-(ethylsulfonyl)phenyl)acetylamino)phenyl)-1-(1-(p-tolyl)ethyl)-1H-benzo[d]imidazol-5-formamide]
< 100 | < 5 |  |  | CCCCCn1c(-c2ccc(NC(=O)C(NC(C)=O)c3ccc(S(=O)(=O)CC)cc3)cc2)nc2ccc(C)cc21 (stereo not shown) [Example 76, 2-acetylamino-2-(4-(ethylsulfonyl)phenyl)-N-(4-(6-methyl-1-pentyl-1H-benzo[d]imidazol-2-yl)phenyl)acetamide]
100 to 1000 | < 5 |  |  | CCS(=O)(=O)c1ccc(CC(=O)Nc2ccc(-c3nc4cc(Cl)c(Cl)cc4n3Cc3ccccc3)cc2)cc1 [Example 86, N-(4-(1-benzyl-5,6-dichloro-1H-benzo[d]imidazol-2-yl)phenyl)-2-(4-(ethylsulfonyl)phenyl)acetamide]
< 100 | < 5 |  |  | CCS(=O)(=O)c1ccc(C(NC(C)=O)C(=O)Nc2ccc(-c3nc4ccc(C)cc4n3[C@H](C)c3ccc(C)cc3)cc2)cc1 (stereo partly drawn) [Example 77, 2-acetylamino-2-(4-(ethylsulfonyl)phenyl)-N-(4-(6-methyl-1-((R)-1-(p-tolyl)ethyl)-1H-benzo[d]imidazopyridin-2-yl)phenyl)acetamide]
100 to 1000 |  |  |  | CCS(=O)(=O)c1ccc(C(NC(C)=O)C(=O)Nc2ccc(-c3nc4ccc(C)cc4n3[C@@H](C)c3ccc(C)cc3)cc2)cc1 (single isomer, unassigned) [Example 75]
